Experiment [1] concerns the target T1, KRas-mediated phosphorylation of ERK in H358 cells (Homo sapiens, UniProt P01116, G12C).
T1 construct: pERK HTRF read-out
Description: Inhibition of KRas-mediated phosphorylation of ERK (HTRF), H358 cells. Format: cell-based. Conditions: HTRF pERK, 3 h incubation. On the technique in general: Time-resolved FRET reads energy transfer from a long-lived donor to a nearby acceptor.

In experiment [2] the target is T2, KRas-mediated phosphorylation of ERK in MKN1 cells (Homo sapiens, UniProt P01116).
T2 construct: pERK HTRF read-out
T2 sequence (P01116 1-188 isoform P01116-2): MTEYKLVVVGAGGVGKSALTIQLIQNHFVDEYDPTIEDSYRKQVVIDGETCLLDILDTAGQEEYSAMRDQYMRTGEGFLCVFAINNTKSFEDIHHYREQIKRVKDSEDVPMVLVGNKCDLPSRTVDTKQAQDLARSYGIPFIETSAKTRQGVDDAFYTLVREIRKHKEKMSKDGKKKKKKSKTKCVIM
In words: Inhibition of KRas-mediated phosphorylation of ERK (HTRF), MKN1 cells. Format: cell-based. Conditions: MKN1 cells (KRas WT); HTRF pERK; 3 h incubation. The procedure: Inhibition of KRas Phosphorylation of ERK (HTRF) by Exemplary Compounds of Formula (Ia) or (Ib)
Cisbio HTRF Advanced pERK Assay Catalog #64AERPEH • Cells: MKN1, PSN1 • Procedure: • 1. Day 1: Seed 6,000 cells/well −25 μl/well in 384-well white solid bottom plate; RPM1_10% FBS. Incubate overnight at 37 °C/5% CO2. • 2.

The target of experiment [3] is T3, KRas G12C (Homo sapiens, UniProt P01116, G12C).
T3 construct: Biotinylated KRas (corresponding to amino acids 1-169, produced at Accelegan Inc.); biotin (biotinylated); purchased Accelegan Inc
T3 sequence (P01116 1-169 isoform P01116-2 G12C): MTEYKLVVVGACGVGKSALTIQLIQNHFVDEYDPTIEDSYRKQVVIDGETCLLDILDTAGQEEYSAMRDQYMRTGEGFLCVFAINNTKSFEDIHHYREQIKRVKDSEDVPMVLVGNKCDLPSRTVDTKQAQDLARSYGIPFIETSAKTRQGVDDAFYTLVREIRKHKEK
Description: KRas binding assay, TR-FRET displacement of Cy5 labelled tracer. The settings on record: 60-minute incubation at room temperature, 1% DMSO, pH 7.5. The gist of the method:
(§1)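 Room-temperature incubation (60 min) of compound with biotinylated KRas 1-169, tracer and Tb-streptavidin preceded the TR-FRET read. Final DMSO was 1%; buffer pH 7.5. Percent-of-control values went into a 4-parameter equation to give IC50.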

For experiment [4], the target named is T4, KRas G12S (Homo sapiens, UniProt P01116, G12S).
T4 construct: Biotinylated KRas (corresponding to amino acids 1-169, produced at Accelegan Inc.); biotin (biotinylated); purchased Accelegan Inc
T4 sequence (P01116 1-169 isoform P01116-2 G12S): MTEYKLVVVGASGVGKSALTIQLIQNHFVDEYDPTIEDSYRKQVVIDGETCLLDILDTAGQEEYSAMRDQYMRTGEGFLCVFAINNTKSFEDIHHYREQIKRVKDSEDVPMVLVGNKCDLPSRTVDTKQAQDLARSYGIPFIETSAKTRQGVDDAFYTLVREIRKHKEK
The experiment is described as above. Conditions: 60-minute incubation at room temperature, 1% DMSO, pH 7.5. The essentials: as §1

Experiment [5] addresses T5, KRas WT (Homo sapiens, UniProt P01116).
T5 construct: Biotinylated KRas (corresponding to amino acids 1-169, produced at Accelegan Inc.); biotin (biotinylated); purchased Accelegan Inc
The description is as above. The settings on record: 60-minute incubation at room temperature, 1% DMSO, pH 7.5. The gist of the method: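 TR-FRET tracer-displacement readout after 60 min at room temperature, using KRas residues 1-169 (biotinylated) with terbium streptavidin and a Cy5 tracer. Buffer: 50 mM HEPES pH 7.5, 5 mM MgCl2, 0.005% Tween-20, 1 mM DTT, 1% DMSO final. IC50 from 4-parameter fit of POC data.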

Experiment [6] concerns the target T6, KRas-mediated phosphorylation of ERK in A549 cells (Homo sapiens, UniProt P01116, G12S).
T6 construct: pERK HTRF read-out
In words: Inhibition of KRas-mediated phosphorylation of ERK (HTRF), A549 cells. Format: cell-based. The settings on record: HTRF pERK, 3 h incubation.

Molecules are shown by their SMILES.

T1 sequence (P01116 1-188 isoform P01116-2 G12C): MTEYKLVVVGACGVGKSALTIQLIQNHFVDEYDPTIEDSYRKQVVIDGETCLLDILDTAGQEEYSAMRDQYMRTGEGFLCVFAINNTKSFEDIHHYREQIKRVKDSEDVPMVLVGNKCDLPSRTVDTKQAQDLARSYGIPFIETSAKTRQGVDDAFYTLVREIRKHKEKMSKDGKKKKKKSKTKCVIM
T5 sequence (P01116 1-169 isoform P01116-2): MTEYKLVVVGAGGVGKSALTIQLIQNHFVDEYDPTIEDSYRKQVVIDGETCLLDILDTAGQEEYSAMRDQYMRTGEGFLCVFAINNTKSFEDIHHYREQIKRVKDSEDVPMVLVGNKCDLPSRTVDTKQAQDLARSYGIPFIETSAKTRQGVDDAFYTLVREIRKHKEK
T6 sequence (P01116 1-188 isoform P01116-2 G12S): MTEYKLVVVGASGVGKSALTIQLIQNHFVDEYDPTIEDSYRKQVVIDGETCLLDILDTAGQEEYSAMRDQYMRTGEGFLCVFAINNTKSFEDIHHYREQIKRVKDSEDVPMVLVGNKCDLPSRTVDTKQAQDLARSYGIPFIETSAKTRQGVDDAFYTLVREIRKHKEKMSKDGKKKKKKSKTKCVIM

For the compound `CCc1c(F)ccc2cc(O)cc(N3CCc4c(nc(OC[C@@]56CCCN5C[C@H](F)C6)nc4N4CCCCCC(C(=O)n5ccc(C)n5)C4)C3)c12` (stereo partly drawn) [Example 192, (1-(7-(8-ethyl-7-fluoro-3-hydroxynaphthalen-1-yl)-2-(((2R,7aS)-2-fluorotetrahydro-1H-pyrrolizin-7a(5H)-yl)methoxy)-5,6,7,8-tetrahydropyrido[3,4-d]pyrimidin-4-yl)azocan-3-yl)(3-methyl-1H-pyrazol-1-yl)methanone], the IC50 in experiment [1] was determined as 160 nM; in experiment [2], 105 nM; in experiment [3] it was 27 nM; in experiment [4] it was 35 nM; in experiment [5], 23 nM; in experiment [6], 4250 nM.

For `CCc1c(F)ccc2cc(O)cc(N3CCc4c(nc(OC[C@@]56CCCN5C[C@H](F)C6)nc4NCCC(=O)n4ccc(C)n4)C3)c12` [Example 195, 3-((7-(8-ethyl-7-fluoro-3-hydroxynaphthalen-1-yl)-2-(((2R,7aS)-2-fluorotetrahydro-1H-pyrrolizin-7a(5H)-yl)methoxy)-5,6,7,8-tetrahydropyrido[3,4-d]pyrimidin-4-yl)amino)-1-(3-methyl-1H-pyrazol-1-yl) propan-1-one], the half-maximal inhibitory concentration (IC50) in experiment [1] was determined as 1170 nM; in experiment [2], 936 nM; in experiment [3], 13 nM; in experiment [4], 6 nM; in experiment [5], 43 nM; in experiment [6], 84 nM.

For `CN(CCCC(=O)Oc1cccc(F)c1)c1nc(OC[C@@]23CCCN2C[C@H](F)C3)nc2c(F)c(-c3ccc(F)c4sc(N)c(C#N)c34)c(Cl)cc12` [Example 198, 3-fluorophenyl 4-((7-(2-amino-3-cyano-7-fluorobenzo[b]thiophen-4-yl)-6-chloro-8-fluoro-2-(((2R,7aS)-2-fluorotetrahydro-1H-pyrrolizin-7a(5H)-yl)methoxy)quinazolin-4-yl)(methyl)amino)butanoate], the half-maximal inhibitory concentration (IC50) in experiment [1] was 28 nM; in experiment [2], 159 nM; in experiment [3], 2 nM; in experiment [4], 14 nM; in experiment [5], 77 nM; in experiment [6], 489 nM.

In the case of `Cc1ccn(C(=O)CCCCN(C)c2nc(OC[C@@]34CCCN3C[C@H](F)C4)nc3c(F)c(-c4ccc(F)c5sc(N)c(C#N)c45)c(Cl)cc23)n1` [Example 199, 2-amino-4-(6-chloro-8-fluoro-2-(((2R,7aS)-2-fluorotetrahydro-1H-pyrrolizin-7a(5H)-yl)methoxy)-4-(methyl(5-(3-methyl-1H-pyrazol-1-yl)-5-oxopentyl)amino)quinazolin-7-yl)-7-fluorobenzo[b]thiophene-3-carbonitrile], the IC50 in experiment [1] turned out to be 432 nM; in experiment [2], 236 nM; in experiment [3], 17 nM; in experiment [4], 27 nM; in experiment [5], 26 nM; in experiment [6], 4320 nM.

In the case of `CN(CCCC(=O)N(C)c1ccccn1)c1nc(OC[C@@]23CCCN2C[C@H](F)C3)nc2c(F)c(-c3ccc(F)c4sc(N)c(C#N)c34)c(Cl)cc12` [Example 200, 4-((7-(2-amino-3-cyano-7-fluorobenzo[b]thiophen-4-yl)-6-chloro-8-fluoro-2-(((2R,7aS)-2-fluorotetrahydro-1H-pyrrolizin-7a(5H)-yl)methoxy)quinazolin-4-yl)(methyl)amino)-N-methyl-N-(pyridin-2-yl) butanamide], the IC50 in experiment [1] was determined as 112 nM; in experiment [2] it was 86 nM; in experiment [3], 2 nM; in experiment [4], 4 nM; in experiment [5], 5 nM; in experiment [6], 729 nM.

Consider `CN(CCCC(=O)Nc1cccnc1)c1nc(OC[C@@]23CCCN2C[C@H](F)C3)nc2c(F)c(-c3ccc(F)c4sc(N)c(C#N)c34)c(Cl)cc12` [Example 201, 4-((7-(2-amino-3-cyano-7-fluorobenzo[b]thiophen-4-yl)-6-chloro-8-fluoro-2-(((2R,7aS)-2-fluorotetrahydro-1H-pyrrolizin-7a(5H)-yl)methoxy)quinazolin-4-yl)(methyl)amino)-N-(pyridin-3-yl)butanamide], for which the IC50 in experiment [1] is 373 nM; in experiment [2], 251 nM; in experiment [3] it was 4 nM; in experiment [4], 5 nM; in experiment [5] it was 6 nM; in experiment [6], 1570 nM.

For `CN(CCCC(=O)Oc1ccccc1)c1nc(OC[C@@]23CCCN2C[C@H](F)C3)nc2c(F)c(-c3ccc(F)c4sc(N)c(C#N)c34)c(Cl)cc12` [Example 204, phenyl 4-((7-(2-amino-3-cyano-7-fluorobenzo[b]thiophen-4-yl)-6-chloro-8-fluoro-2-(((2R,7aS)-2-fluorotetrahydro-1H-pyrrolizin-7a(5H)-yl)methoxy)quinazolin-4-yl)(methyl)amino)butanoate], the IC50 in experiment [1] is 17 nM; in experiment [2], 230 nM; in experiment [3], < 2 nM; in experiment [4], 13 nM; in experiment [5] it was 38 nM; in experiment [6], 351 nM.

As for `CN(C)Cc1ccn(C(=O)C2CCCN(c3nc(OC[C@@]45CCCN4C[C@H](F)C5)nc4c(F)c(-c5ccc(F)c6sc(N)c(C#N)c56)c(Cl)cc34)CC2)n1` (stereo partly drawn) [Example 205, 2-amino-4-(6-chloro-4-(4-(3-((dimethylamino)methyl)-1H-pyrazole-1-carbonyl)azepan-1-yl)-8-fluoro-2-(((2R,7aS)-2-fluorotetrahydro-1H-pyrrolizin-7a(5H)-yl)methoxy)quinazolin-7-yl)-7-fluorobenzo[b]thiophene-3-carbonitrile], the IC50 in experiment [1] amounted to 59 nM; in experiment [2], 540 nM; in experiment [3] it was 2 nM; in experiment [4], 4 nM; in experiment [5], 7 nM; in experiment [6], 25 nM.

With `CC(C)C(=O)N(C)C(=O)C1CCN(c2nc(OC[C@@]34CCCN3C[C@H](F)C4)nc3c(F)c(-c4ccc(F)c5sc(N)c(C#N)c45)c(Cl)cc23)CC1` [Example 206, 1-(7-(2-amino-3-cyano-7-fluorobenzo[b]thiophen-4-yl)-6-chloro-8-fluoro-2-(((2R,7aS)-2-fluorotetrahydro-1H-pyrrolizin-7a(5H)-yl)methoxy)quinazolin-4-yl)-N-isobutyryl-N-methylpiperidine-4-carboxamide], the IC50 in experiment [1] was found to be 31 nM; in experiment [2], 26 nM; in experiment [3], 7 nM; in experiment [4], 9 nM; in experiment [5] it was 8 nM; in experiment [6], 82 nM.

As for `CCc1c(F)ccc2cc(O)cc(-c3ncc4c(N5CCC(C(=O)N(C)C(=O)COC)CC5)nc(OC[C@@]56CCCN5C[C@H](F)C6)nc4c3F)c12` [Example 209, 1-(7-(8-ethyl-7-fluoro-3-hydroxynaphthalen-1-yl)-8-fluoro-2-(((2R,7aS)-2-fluorotetrahydro-1H-pyrrolizin-7a(5H)-yl)methoxy)pyrido[4,3-d]pyrimidin-4-yl)-N-(2-methoxyacetyl)-N-methylpiperidine-4-carboxamide], the IC50 in experiment [1] was 1460 nM; in experiment [2], 1110 nM; in experiment [3], 168 nM; in experiment [4] it was 165 nM; in experiment [5] it was 496 nM; in experiment [6] it was 281 nM.

Take `CCc1c(F)ccc2cc(O)cc(-c3ncc4c(N5C[C@H]6C[C@@H](C(=O)n7ccc(C)n7)[C@H]6C5)nc(OC[C@@]56CCCN5C[C@H](F)C6)nc4c3F)c12` [Example 210, ((1S,5S,6R)-3-(7-(8-ethyl-7-fluoro-3-hydroxynaphthalen-1-yl)-8-fluoro-2-(((2R,7aS)-2-fluorotetrahydro-1H-pyrrolizin-7a(5H)-yl)methoxy)pyrido[4,3-d]pyrimidin-4-yl)-3-azabicyclo[3.2.0]heptan-6-yl)(3-methyl-1H-pyrazol-1-yl)methanone]: the IC50 in experiment [1] turned out to be 8660 nM; in experiment [2] it was 5020 nM; in experiment [3], 2250 nM; in experiment [4], 1290 nM; in experiment [5] it was 2730 nM; in experiment [6] it was 741 nM.

For the compound `CCc1c(F)ccc2cc(O)cc(-c3ncc4c(N5C[C@@H]6C[C@H](C(=O)n7ccc(C)n7)[C@@H]6C5)nc(OC[C@@]56CCCN5C[C@H](F)C6)nc4c3F)c12` [Example 211, ((1R,5R,6S)-3-(7-(8-ethyl-7-fluoro-3-hydroxynaphthalen-1-yl)-8-fluoro-2-(((2R,7aS)-2-fluorotetrahydro-1H-pyrrolizin-7a(5H)-yl)methoxy)pyrido[4,3-d]pyrimidin-4-yl)-3-azabicyclo[3.2.0]heptan-6-yl)(3-methyl-1H-pyrazol-1-yl)methanone], the IC50 in experiment [1] turned out to be 518 nM; in experiment [2], 567 nM; in experiment [3] it was 61 nM; in experiment [4] it was 15 nM; in experiment [5], 314 nM; in experiment [6] it was 23 nM.

Usually IC50 stands for the concentration that gives 50% inhibition. The low end stands for greater potency in that assay, the high end for weaker potency in that assay.

Source of the values: US20260356856A1, “KRAS G12S AND G12C INHIBITORS” (MIRATI THERAPEUTICS, INC., priority 2023, published 2026).
